# Experimental data taken from patent US20150024934A1, “CONTROLLING CHARCOAL ROT WITH FLUTRIAFOL” (CHEMINOVA A/S, priority 2013, published 2015).
# Key:
# [1] = test system: Macrophomina phaseolina; test: Mycelial colony growth on flutriafol-amended PDA; assay type: cell-based; settings: 1x; for Dia (mm) 1 day: untreated 28.2; for Dia (mm) 3 days / Dia (mm) 5 days / Dia (mm) 7 days: untreated 40
# Procedure: Inhibition of Macrophomina phaseolina (charcoal rot) was tested in the following example: The flutriafol composition used in the example was TOPGUARD (125 g/L flutriafol SC), a commercially available product.
# Each pathogen was grown out on fresh potato dextrose agar (commercial PDA), assessed and used to seed 2× autoclaved rice for inoculums development. At 7-10 days, two infested rice grains with the pathogen was placed at equal distances on flutriafol-amended PDA and incubated at 27-29° C. Mycelial colony diameter from each rice grain was measured at 1, 3, 5 and 7 days from grain placement. The included tables and data sets illustrate the differences in mycelia growth in response to various concentrations of the fungicide.
# [2] = test system: charcoal rot; test: Strawberry field trial for control of charcoal rot (infected plants, yield); assay type: in vivo; settings: applied either surface incorporated or via buried drip
smiles,measurement,setting,value
"OC(Cn1cncn1)(c1ccc(F)cc1)c1ccccc1F (racemic) [flutriafol, (RS)-2,4′-difluoro-α-(1H-1,2,4-triazol-1-ylmethyl)benzhydryl alcohol]",Dia (mm) 1 day,[1]; 0.01 ppm,25.5 mm
same,Dia (mm) 3 days,[1]; 0.01 ppm,40 mm
same,Dia (mm) 5 days,[1]; 0.01 ppm,40 mm
same,Dia (mm) 7 days,[1]; 0.01 ppm,40 mm
same,Dia (mm) 1 day,[1]; 0.1 ppm,22.3 mm
same,Dia (mm) 3 days,[1]; 0.1 ppm,40 mm
same,Dia (mm) 5 days,[1]; 0.1 ppm,40 mm
same,Dia (mm) 7 days,[1]; 0.1 ppm,40 mm
same,Dia (mm) 1 day,[1]; 1 ppm,13.9 mm
same,Dia (mm) 3 days,[1]; 1 ppm,38.6 mm
same,Dia (mm) 5 days,[1]; 1 ppm,40 mm
same,Dia (mm) 7 days,[1]; 1 ppm,40 mm
same,Dia (mm) 1 day,[1]; 10 ppm,0 mm
same,Dia (mm) 3 days,[1]; 10 ppm,3.5 mm
same,Dia (mm) 5 days,[1]; 10 ppm,3.5 mm
same,Dia (mm) 7 days,[1]; 10 ppm,5.1 mm
same,Dia (mm) 1 day,[1]; 100 ppm,0 mm
same,Dia (mm) 3 days,[1]; 100 ppm,0 mm
same,Dia (mm) 5 days,[1]; 100 ppm,0 mm
same,Dia (mm) 7 days,[1]; 100 ppm,0 mm
same,Dia (mm) 1 day,"[1]; 250 ppm, mycelial colony diameter, TOPGUARD 125 g/L SC in PDA",0 mm
same,Dia (mm) 3 days,[1]; 250 ppm,0 mm
same,Dia (mm) 5 days,[1]; 250 ppm,0 mm
same,Dia (mm) 7 days,[1]; 250 ppm,0 mm
same,effect on charcoal rot,[2],significantly reduced charcoal rot
